Results: paper PMC10118179, “Tannic acid, an IL-1β-direct binding compound, ameliorates IL-1β-induced inflammation and cartilage degradation by hindering IL-1β-IL-1R1 interaction” (PLOS ONE, 2023)

Target: T1, Interleukin-1β (IL-1β) (Homo sapiens, UniProt P01584)
T1 construct: gene IL1B; recombinant human IL-1β
Assay: SPR (Biacore T200, IL-1β immobilized on CM5 chip)
Type: binding

T1 sequence (P01584 117-269): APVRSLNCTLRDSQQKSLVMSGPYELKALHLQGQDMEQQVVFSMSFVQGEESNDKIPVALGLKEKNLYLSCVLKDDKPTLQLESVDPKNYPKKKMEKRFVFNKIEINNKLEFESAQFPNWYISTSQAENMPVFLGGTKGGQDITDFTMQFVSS

Kd: 822 nM
SMILES: O=C(OC[C@H]1O[C@@H](OC(=O)c2cc(O)c(O)c(OC(=O)c3cc(O)c(O)c(O)c3)c2)[C@H](OC(=O)c2cc(O)c(O)c(OC(=O)c3cc(O)c(O)c(O)c3)c2)[C@@H](OC(=O)c2cc(O)c(O)c(OC(=O)c3cc(O)c(O)c(O)c3)c2)[C@@H]1OC(=O)c1cc(O)c(O)c(OC(=O)c2cc(O)c(O)c(O)c2)c1)c1cc(O)c(O)c(OC(=O)c2cc(O)c(O)c(O)c2)c1 [TA, Tannic acid]
